SMILES strings stand for the structures.

Common to all, as to type: in vivo
In series [1] the test system is 3rd-instar larvae of Ostrinia furnacalis Guenee. In words: Synergism screening (Bliss) of I-72 + ecdysteroid and juvenile hormone insecticides, Example 51, Table 51. Conditions: for mortality at 0.04 µg/mL / mortality at 2 µg/mL / mortality at 100 µg/mL / mortality at 0.1 µg/mL / mortality at 40 µg/mL: Ostrinia furnacalis, 72 h, read-out: Measured mortality rate; for Measured mortality rate: single pesticide, 72 hours. The procedure: Test target: 3rd-instar larvae of Ostrinia furnacalis Guenee.
(§1) Preparation of the pesticide solution: according to different test requirements, the test samples were accurately weighed respectively with an electronic analytical balance. The technical pesticides were dissolved in acetone, and then diluted with 0.1% Tween 80 water into a series of pesticide solutions with a certain concentration gradient according to the experimental design dosage.
Experimental method: first, tender corn stems were selected and dipped in the prepared pesticide solution for 10 s in the order from low dosage to high dosage according to the experimental design. After natural air-drying in the shade, they were placed in a 9-cm-diameter Petri dish with filter paper, and uniform and healthy test insects were introduced, with 10 insects for each treatment and 3 replicates for each treatment. In addition, a blank control (CK) was set up.
(§2) The treated test materials were placed in an observation room, and the temperature, humidity and illumination of the observation room could be adjusted as needed. The number of dead and alive insects was investigated 72 hours later, and the corrected mortality rate was calculated using the Abbott's formula.
(§3) The synergism of the mixture was evaluated by adopting the Bliss method, as in Example 5.

Series [2] deals with Sitobion miscanthi (Fabricius). In words: whole plant or invertebrate. Conditions: for Measured mortality rate: single pesticide, 48 hours. As for the experimental part: Test target: Sitobion miscanthi (Fabricius).
as §1
Experimental method: first, wheat seedlings with uniform and consistent Sitobion miscanthi (Fabricius) were selected, with about 30-40 insects on each pot of wheat. Then, they were evenly sprayed with the pesticide solution in the order from low dosage to high dosage according to the experimental design, with 2.5 mL for each pot and 3 replicates for each treatment. In addition, a blank control CK was set up.
The treated test materials were placed in an observation room, and the temperature, humidity and illumination of the observation room could be adjusted as needed. The number of dead and alive insects was investigated 48 hours later, and the corrected mortality rate was calculated using the Abbott's formula.
The synergism of the mixture was evaluated by the Bliss method. According to the concept of independent joint action he proposed, Bliss believes that the theoretical mortality rate P when insecticides are used in combination can be calculated by the following formula: […]
Pm is the measured mortality rate (%) of the target when the first active ingredient is at a concentration of m; and Pn is the measured mortality rate (%) of the target when the second active ingredient is used at a concentration of n.
(§4) If the actual mortality rate of the target after the two active ingredients are mixed at a certain concentration is greater than theoretical mortality rate P, it is determined that the two active ingredients have a synergistic effect when used in combination at the set concentration, and otherwise, they have an antagonistic effect.

For series [3], the system named is 3rd-instar larvae of Pyrausta nubilalis Hubern. In words: Synergism assay (Bliss) of I-72 + cartap, monosultap, bisultap, Example 5, Table 5. The note with it: 72 h. The procedure: Test subject: 3rd-instar larvae of Pyrausta nubilalis Hubern, a sensitive strain reared indoors.
Test conditions: temperature: 24-26° C., humidity: RH 60%, and illumination: L:D=14:10
Preparation method: the test pesticides were accurately weighed respectively with an electronic analytical balance. After the two technical materials were respectively added into an appropriate amount of solvent and completely dissolved, the stock solution of the required concentration was prepared with water containing 0.1% Tween 80. The stock solutions of the two active ingredients were mixed in a certain ratio to prepare a mixed solution, which was then diluted respectively into a series of pesticide solutions with a certain concentration gradient according to the experimental design dosage.
Experimental method: the artificial diet-pesticide film method was adopted. A standard clean 24-well culture plate was selected. 1 ml of artificial diet was added to each well. After the diet cooled and solidified, a quantitative amount of a pesticide solution was added to the culture plate using a continuous sampler, and then it was air-dried naturally in the shade. The standard test insects were introduced, with 1 insect in each well, a total of 48 insects. The treated test insects were placed in an observation room under certain conditions. The reaction of the test insects was regularly observed, and the number of dead and live insects was investigated 72 h later.
The evaluation method adopted was the Bliss method. This method is applicable to the qualitative screening of insecticidal compositions. According to the concept of independent joint action he proposed, Bliss believes that the theoretical mortality rate P when insecticides are used in combination can be calculated by the following formula: […]
Pm is the mortality rate (%) of the target when the first active ingredient is at a concentration of m; and Pn is the mortality rate (%) of the target when the second active ingredient is at a concentration of n.
as §4

In series [4] the test system is 2nd-instar larvae of Plutella xylostella. In words: Synergism screening (Bliss) of I-72 + insect attractants and insecticides, Example 49, Table 49. The note with it: for Measured mortality rate: single pesticide, 72 hours. As for the experimental part:
Test target: 2nd-instar larvae of Plutella xylostella.
as §1
Experimental method: first, cabbage leaves were selected and dipped in the prepared pesticide solution for 10 s in the order from low dosage to high dosage according to the experimental design. After natural air-drying in the shade, they were placed in a 9-cm-diameter Petri dish with filter paper, and uniform and healthy test insects were introduced, with 10 insects for each treatment and 3 replicates for each treatment. In addition, a blank control CK was set up.
as §2, §3

For series [5], the system named is Rhizoctonia solani. The series is described as follows: Control efficacy against Rhizoctonia solani, rice seedling potting method, Example 89, Table 89. Conditions: rice seedlings, foliar spraying. As for the experimental part: Control efficacy of the composition containing the compound I-72 against Rhizoctonia solani
Test target: Rhizoctonia solani, a sensitive strain cultured indoors.
The trial adopted the seedling potting method. Test crop: rice. Experimental method: the rice seedlings were cultured to the 2-leaf stage in the greenhouse of the experimental materials. Foliar spraying treatment was performed on the crop sprayer according to the designed dosage. The test target strain was inoculated 24 hours after the pesticide treatment. All the inoculated experimental materials were cultured in a phytotron. […] The disease grading and the calculation method of the control efficacy both referred to the agricultural industry standards of the People's Republic of China.

The mark [6] stands for this setting: Sitobion miscanthi, in Triticum aestivum, 48 h, read-out: Measured mortality rate.
Setting [7] is: Ostrinia nubilalis, read-out: Mortality rate (%).
[8] abbreviates: Plutella xylostella, 72 h, read-out: Measured mortality rate.

Broadly, the mortality is the percentage killed. For `COC(C)(C)CCC[C@H](C)C/C=C/C(C)=C/C(=O)OC(C)C` (racemic) [Methoprene], in series [1], the mortality at 0.04 µg/mL is 10%, the mortality at 2 µg/mL was determined as 17.9% and the mortality at 100 µg/mL was determined as 25%.

Turning to `CC(C)(C)[C@@H](O)[C@@H](Cc1ccc(Cl)cc1)n1cncn1` (racemic) [Paclobutrazol], in series [2] (setting [6]), the mortality at 1 µg/mL worked out at 6.8%, the mortality at 10 µg/mL turned out to be 7.8% and the mortality at 100 µg/mL was found to be 11.3%.

Take `CN(C)C(CSS(=O)(=O)[O-])CSS(=O)(=O)[O-].[Na+].[Na+]` [Bisultap, bisultap]: the “Mortality rate (%)” value in series [3] (single agent 0.1 mg/L) is 0%; in series [3] (single agent 1 mg/L), 4.17%; in series [3] (single agent 5 mg/L) it was 10.42%; in series [3] (single agent 10 mg/L), 22.92%.

Regarding `CC(C)[C@H](C)[C@@H](O)[C@H](O)[C@@H](C)[C@H]1CC[C@H]2[C@@H]3COC(=O)[C@H]4C[C@H](O)[C@H](O)C[C@]4(C)[C@H]3CC[C@]12C` [Brassinolide], the Measured mortality rate is given as 6.7% in series [2] (0.5 mg/L), 8.8% in series [2] (10 mg/L) and 12.6% in series [2] (200 mg/L).

`CN(C)C(CSC(N)=O)CSC(N)=O` [Cartap, cartap]: in series [3] (setting [7]), the mortality at 0.1 µg/mL was determined as 2.08%, the mortality at 1 µg/mL was 10.4%, the mortality at 5 µg/mL worked out at 20.8% and the mortality at 10 µg/mL amounted to 43.8%.

For the molecule `Nc1nc(N)nc(NC2CC2)n1` [Cyromazine], in series [1], the mortality at 0.1 µg/mL is 6.9%, the mortality at 2 µg/mL was determined as 10.7% and the mortality at 40 µg/mL stood at 21.2%.

As for `O=P(O)(O)CCCl` [Ethephon], in series [2] (setting [6]), the mortality at 0.2 µg/mL was determined as 7%, the mortality at 10 µg/mL amounted to 8.8% and the mortality at 500 µg/mL was 15%.

As to `Cc1cc(C)cc(C(=O)N(NC(=O)c2ccc3c(c2C)OC(C)C3)C(C)(C)C)c1` (stereo not drawn) [Fufenozide], the results for the Measured mortality rate in series [1] (0.1 mg/L), in series [1] (2 mg/L) and in series [1] (40 mg/L) were 9.4%, 15.4% and 41.9%, respectively.

As for `C=C1C[C@]23C[C@@]1(O)CC[C@H]2[C@@]12C=C[C@H](O)[C@@](C)(C(=O)O1)[C@H]2[C@@H]3C(=O)O` [Gibberellic acid], in series [2] (setting [6]), the mortality at 0.5 µg/mL turned out to be 5.9%, the mortality at 10 µg/mL amounted to 10% and the mortality at 200 µg/mL stood at 12.5%.

For the molecule `CCN1OCC(NC(=O)c2ccc(C3=NOC(c4cc(Cl)c(F)c(Cl)c4)(C(F)(F)F)C3)cc2C)C1=O` (stereo not drawn) [Isocycloseram], the figures for the Measured mortality rate in series [4] (0.01 mg/L), in series [4] (0.1 mg/L) and in series [4] (1 mg/L) were 17.9%, 71.9% and 80.0%, respectively.

Turning to `COc1cccc(C(=O)NN(C(=O)c2cc(C)cc(C)c2)C(C)(C)C)c1C` [Methoxyfenozide], in series [1], the mortality at 0.1 µg/mL is 11.1%, the mortality at 2 µg/mL stood at 18.8% and the mortality at 40 µg/mL was determined as 50%.

With `CN(C)C(CSS(=O)(=O)[O-])CSS(=O)(=O)O.[Na+]` [Monosultap, monosultap], the “Mortality rate (%)” value was 0% in series [3] (single agent 0.1 mg/L), 6.25% in series [3] (single agent 1 mg/L), 18.75% in series [3] (single agent 5 mg/L) and 29.17% in series [3] (single agent 10 mg/L).

Regarding `CCCCCCCC/C=C\CCCCCCCCCCCCC` [Muscalure], the Measured mortality rate worked out at 3.1% in series [4] (0.002 mg/L), 10.0% in series [4] (0.1 mg/L) and 20.7% in series [4] (5 mg/L).

On to `FC(F)(F)c1ccc(OCCCOc2c(Cl)cc(OCC=C(Cl)Cl)cc2Cl)nc1` [Pyridalyl], for which, in series [4] (setting [8]), the mortality at 0.005 µg/mL was 8%, the mortality at 0.1 µg/mL worked out at 12.9% and the mortality at 2 µg/mL stood at 24.1%.

For `CC(COc1ccc(Oc2ccccc2)cc1)Oc1ccccn1` (stereo not drawn) [Pyriproxyfen], in series [1], the mortality at 0.04 µg/mL amounted to 7.1%, the mortality at 2 µg/mL is 9.7% and the mortality at 100 µg/mL came out at 16.1%.

Take `CC1=CC(=O)CC(C)(C)[C@@]1(O)/C=C/C(C)=C/C(=O)O` [S-abscisic acid]: the results for the Measured mortality rate in series [2] (1 mg/L), in series [2] (10 mg/L) and in series [2] (100 mg/L) were 7.9%, 8.3% and 10.3%, respectively.

As to `CCc1ccc(C(=O)NN(C(=O)c2cc(C)cc(C)c2)C(C)(C)C)cc1` [Tebufenozide], in series [1], the mortality at 0.1 µg/mL turned out to be 10.3%, the mortality at 2 µg/mL turned out to be 17.2% and the mortality at 40 µg/mL came to 46.4%.

For the molecule `CCCCc1c(C)c2ccc(OCc3ccccc3/C(=C\OC)C(=O)OC)cc2oc1=O` [coumoxystrobin], the Control efficacy in series [5] (5 mg/L, A = compound I-72, B = coumoxystrobin) is on record as 44.3%; in series [5] (10 mg/L, A = compound I-72, B = coumoxystrobin), 61.9%; in series [5] (20 mg/L, A = compound I-72, B = coumoxystrobin) it was 81.5%.

For the molecule `CO/C=C(/C(=O)OC)c1ccccc1COc1cc(-c2ccc(Cl)cc2)nn1C` [pyraoxystrobin], the Control efficacy in series [5] (5 mg/L, A = compound I-72, B = pyraoxystrobin) is listed as 42.8%; in series [5] (10 mg/L, A = compound I-72, B = pyraoxystrobin) it was 71.5%; in series [5] (20 mg/L, A = compound I-72, B = pyraoxystrobin) it was 82.4%.

Source of the values: patent publication US20260198495A1, “BINARY INSECTICIDE COMPOSITION AND USE THEREOF” (SHENYANG SINOCHEM AGROCHEMICALS R & D CO., LTD., priority 2022, published 2026).
